# Test results from US20090297579A1, “Control of Cells and Cell Multipotentiality in Three Dimensional Matrices” (Massachusetts Institute of Technology, priority 2006, published 2009).
# “Also recorded” adds a separate entry of the source.
# Columns and labels:
# [1] = system: Mouse Embryonic Fibroblasts (MEFs); test: Gel contraction and bilateral/embryoid-like structure development of MEFs in self-assembling peptide scaffold; type: cell-based; settings: for Gel contraction: Table 4, 10 days
# Method: In other experiments with RAD16-I, MEF cells (<8th passage) were trypsinized from 75 cm2 culture flasks, suspended in sucrose 20% and mixed with the self-assembling peptide RAD16-I (BD, Puramatrix) 0.5% to obtain a final MEF concentration of 2·10^6 cells/ml and 0.25% of RAD16-I. This suspension was seeded into inserts (Millipore) and jellified by addition of FM. After jellification, FM was added on the hydrogel. Incubation was performed at 37° C. with 5% CO2 and medium was changed every 2 days.
# The shape presents bilateral symmetry (3D-bilateral) and resembles some aspects of a vertebrate embryo undergoing axis formation. Collagen I cultures presented a different morphology, basically consisting of a small spherical ball produced by equal contraction forces, without any distinctive shape or pattern.
# The percentage of self-assembling peptide used for these experiments was half of the amount we described above (0.25% vs. 0.5%). […] Thus, in this example, two different parameters that may affect the development of such embryoid-like structures were studied: self-assembling peptide scaffold stiffness and fetal bovine serum concentration. […] Gel contraction and the presence of embryoid-like structure development were analyzed. nt=condition not tested.
# [2] = system: EB-derived cells (mouse embryonic stem cell line R1 Oct4-GFP); test: Alkaline phosphatase activity of EB-derived cells in 3D culture; type: cell-based; settings: EB-dc 3D cultures
# Method: Fluorescence microscopy was used to monitor GFP expression during EB formation. The EB were harvested and allowed to settle in a tube. The medium was removed and EB were gently treated with trypsin-EDTA 1× (GIBCO). The resultant EB-derived cells were encapsulated into the peptide scaffold (3D cultures) at a final concentration of 2×10^6 cells/mL, as described above, and cultured in control medium (ES medium in the absence of LIF). 2D cultures, in regular culture plates, were also performed as controls. The EB-derived cells were plated into 12-well plate containing control medium (ES medium in the absence of LIF) at a concentration of 760,000 cells/mL (200,000 cells/cm^2). […]
# Alkaline phosphatase activity. Alkaline phosphatase enzyme activity (ALP) of 2D and 3D cultures was measured in triplicate cultures before and after the osteogenic differentiation. […] ALP enzyme activity was calculated after measuring the absorbance of the reaction product formed, p-nitrophenol, at 405 nm on a spectrophotometer. […] Total protein levels were determined using a protein detection kit (Bio-Rad) based on the method of Lowry in order to normalize total protein levels. […]
# [3] = system: Mouse Embryonic Fibroblasts (MEF); test: Alkaline phosphatase activity of MEFs in 3D culture; type: cell-based
# Method: Osteogenic differentiation of Mouse Embryonic Fibroblasts (MEF). Mouse embryonic fibroblasts (MEFs) were purchased from ATCC(SCRC-1008). They were isolated from mouse embryos derived from C57BL/6 mothers at 14 days of gestation (E14). The MEFs were expanded prior to osteogenic induction in MEF culture medium of DMEM (high glucose) containing 10% FBS (fetal bovine serum, Hyclone), 4 mM L-glutamine (GIBCO), and 1% (v/v) penicillin-streptomycin (GIBCO). The differentiation experiments were carried out using cells between passages 3 and 5. The MEFs were encapsulated into the peptide scaffold (3D cultures) at a final concentration of 2×10^6 cells/mL, as described above (3D cultures). 2D cultures were also performed by culturing MEFs into 12-well regular culture plates. Both the 2D and 3D cultures were maintained in MEF culture medium for 2-4 days (FIG. 1B). Next, the MEF medium was changed by osteogenic medium (same as in mESC osteogenic induction section). Also, […] of 1-alpha,25-(OH)2 vitamin D3 (Sigma) was added to the osteogenic medium as previously described for mouse-derived NIH 3T3 fibroblasts. The cultures were maintained for different time periods (FIG. 1B, STAGE 3) in osteogenic medium at 37° C. in humidified air with 5% CO2. The medium was regularly exchanged with fresh osteogenic medium.
# Alkaline phosphatase activity. Alkaline phosphatase enzyme activity (ALP) of 2D and 3D cultures was measured in triplicate cultures before and after the osteogenic differentiation. The cultures were rinsed twice with […] (TBS, 50 mM Tris base, 0.15 M NaCl, pH 7.4) and then the cells were incubated with 5 mM p-nitrophenyl phosphate (p-nitrophenyl phosphate disodium salt tablets, Sigma) solution in glycine buffer (50 mM glycine, 1 mM MgCl2, pH 10.5) for 30 min at 37° C. ALP enzyme activity was calculated after measuring the absorbance of the reaction product formed, p-nitrophenol, at 405 nm on a spectrophotometer. Standards were prepared by consecutively diluting 10 mM p-nitrophenol (Sigma) solution in glycine buffer at concentrations ranging from 0.0001 mM to 0.06 mM. Total protein levels were determined using a protein detection kit (Bio-Rad) based on the method of Lowry in order to normalize total protein levels. The final APL activity was expressed in units/mg of protein (one unit will hydrolyze 1 micromoles of p-nitrophenyl phosphate per minute at pH 10.5).
# MEFs [4] = test: Cell cycle arrest assay with staurosporine: 3D-bilateral structure development / cell mass contraction; type: cell-based, mouse
# Method: (§1) Cell Cycle Arrest Assays with Staurosporine. Cultures of MEFs were incubated in FM with Staurosporine (20 nM) during 7 days while controls were incubated in FM. At day 6, a pulse of BrdU was applied overnight. MEFs were fixed at day 7 and stained with a mouse monoclonal antibody IGgl anti-BrdU FITC-conjugated (BD PharMingen, 33284×). To assess the dose-response effect of staurosporine on MEFs, these were incubated with different concentrations of staurosporine (0, 2, 20 nM) during 14 days. Visual inspection of the cell mass contraction along these 14 days was performed.
# (§2) (A) MEFs were incubated with and without staurosporine (20 nM) during 7 days. Proliferation was studied by means of a BrdU pulse followed by immunostaining against BrdU. (B) MEFs were incubated, during 14 days, with different concentrations of staurosporine (0, 2, 20 nM) to further analyze the effect of proliferation in the contraction phenomenon.
# MEFs [5] = test: BrdU pulse proliferation assay with staurosporine; type: cell-based, mouse; settings: staurosporine 20 nM, 7 days, BrdU pulse at day 6
# Method: as §1, §2
Compound,"Contraction ([1]; Table 3, 0.25% RAD, 2% FBS)","Contraction ([1]; Table 3, 0.25% RAD, 10% FBS)","Contraction ([1]; Table 3, 0.25% RAD, 15% FBS)","Structure formation ([1]; Table 3, 0.25% RAD, 15% FBS)","Contraction ([1]; Table 3, 0.5% RAD, 2% FBS)","Contraction ([1]; Table 3, 0.5% RAD, 10% FBS)","Contraction ([1]; Table 3, 0.5% RAD, 15% FBS)","Gel contraction ([1]; peptide gel 0.25%, FBS 2%)","Gel contraction ([1]; peptide gel 0.25%, FBS 15%)","Gel contraction ([1]; peptide gel 0.5%, FBS 15%)",ALP activity ([2]; control (no osteogenic induction)) [U/mg],ALP activity ([2]; osteogenic-induced) [U/mg],"ALP activity ([3]; MEF 3D control cultures, after culture) [U/mg]","ALP activity ([3]; MEF 3D control cultures, initial) [U/mg]","ALP activity ([3]; MEF 3D osteogenic cultures, after osteogenic induction) [U/mg]","ALP activity ([3]; MEF 3D osteogenic cultures, initial) [U/mg]","Effect on 3D-bilateral structure development at diluted concentrations (MEFs [4]; staurosporine 0, 2, 20 nM, 14 days)","Development of the 3D-bilateral structure (MEFs [4]; staurosporine 20 nM, 7 days, MEFs in RAD16-I)",Incorporation of BrdU (MEFs [5])
AcN-RADARADARADARADA-CONH2 [Peptide],No contraction,Low,High contraction;,bilateral structures,No contraction,Very low,Low,Low,High,Low,190.2,87,68.1,1.8,118.3,1.5,,,
CN[C@@H]1C[C@H]2O[C@@](C)([C@@H]1OC)n1c3ccccc3c3c4c(c5c6ccccc6n2c5c31)C(=O)NC4 [Staurosporine],,,,,,,,,,,,,,,,,dose-response inhibitory effect,clearly abrogated; also recorded: prevented,no incorporation
